The source of these data is ChEMBL document CHEMBL4433208, “N-Nitrosulfonamides as Carbonic Anhydrase Inhibitors: A Promising Chemotype for Targeting Chagas Disease and Leishmaniasis” (ACS Med Chem Lett, 2019).

pIC50: −log10 of the molar value. Values after ≈ are worked out from the molar mass of the structure shown. Some results are limits rather than exact numbers.

Series [1] in a line: in vitro. The following applies: mouse, RAW264.7 cells.
Description: Cytotoxicity against mouse RAW264.7 cells assessed as reduction in cell viability after 48 hrs by MTT assay
For series [2], the system named is Trypanosoma cruzi. Description: microbe, parasite or virus in culture. The format is functional. The following applies: Y.
Description: Antitrypanosomal activity against Trypanosoma cruzi Y epimastigotes resazurin dye based assay
Series [3] relates to Trypanosoma cruzi. Description: microbe, parasite or virus in culture. The format is functional. To be noted: Dm28c, 48 h.
Description: Antitrypanosomal activity against Trypanosoma cruzi Dm28c epimastigotes after 48 hrs by resazurin dye based assay
Series [4] is described as follows: in vitro. To be noted: chlorocebus sabaeus, Vero cells.
Description: Cytotoxicity against African green monkey Vero cells 72 hrs by CellTiter-Glo assay
Series [5] concerns Leishmania infantum. Put plainly: microbe, parasite or virus in culture. The format is functional, organism-based. The following applies: MHOM/BR/1974/PP75, 48 h.
Description: Antileishmanial activity against Leishmania infantum MHOM/BR/1974/PP75 promastigotes assessed as reduction in parasite viability after 48 hrs by resazurin dye based assay
Series [6] deals with Leishmania amazonensis. Description: microbe, parasite or virus in culture. To be noted: IFLA/BR/1967/PH8, 48 h. The format is functional.
Description: Antileishmanial activity against Leishmania amazonensis IFLA/BR/1967/PH8 promastigotes after 48 hrs by resazurin dye based assay
Series [7] relates to Leishmania infantum. Description: microbe, parasite or virus in culture. The following applies: MHOM/BR/1974/PP75, 48 h. The format is functional.
Description: Antileishmanial activity against Leishmania infantum MHOM/BR/1974/PP75 promastigotes after 48 hrs by resazurin dye based assay
Series [8] relates to Leishmania amazonensis. Description: microbe, parasite or virus in culture. The format is functional, organism-based. To be noted: IFLA/BR/1967/PH8, 48 h.
Description: Antileishmanial activity against Leishmania amazonensis IFLA/BR/1967/PH8 promastigotes assessed as reduction in parasite viability IFLA/BR/1967/PH8 after 48 hrs by resazurin dye based assay

Regarding `O=C(Cn1ccnc1[N+](=O)[O-])NCc1ccccc1` [BENZNIDAZOLE], the CC50 – broadly, the concentration giving 50% cytotoxicity – at 48 h in series [1] stood at 138 µM. Moreover, the MIC in series [2] and in series [3] was 32 µM (≈ 8.33 µg/mL) each time. For the same compound, the CC50 at 72 h in series [4] is above 500 µM.
In the case of `C[C@@H]1[C@H](O)[C@@H](C)/C=C/C=C/C=C/C=C/C=C/C=C/C=C/[C@H](O[C@@H]2O[C@H](C)[C@@H](O)[C@H](N)[C@@H]2O)C[C@@H]2O[C@](O)(C[C@@H](O)C[C@@H](O)[C@H](O)CC[C@@H](O)C[C@@H](O)CC(=O)O[C@H]1C)C[C@H](O)[C@H]2C(=O)O` [AMPHOTERICIN B], the pIC50 (in general, −log10 of the IC50, conventionally taken in molar units) was 5.75 in series [5] and 5.78 in series [8]. The compound further registered a CC50 at 48 h in series [1] of 1 µM. For the same compound, the MIC in series [6] and in series [7] was 8 µM (≈ 7.39 µg/mL) in each case.
